Reference: patent publication US6737383B1, “Herbicidal oxadiazolidines” (priority 1999, dated 2004)

Tests used:
bedstraw = assay: Test B pre/postemergence bedstraw; format: in vivo, Galium aparine; conditions: for Bedstraw plant response rating (0 to 10 scale): 0 is no effect
Outline: (§1)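 Test chemicals in a non-phytotoxic solvent mixture with surfactant were sprayed preemergence onto planted seeds and postemergence onto plants 2 to 18 cm tall (1- to 4-leaf stage). After twelve to sixteen days in a greenhouse, injury was visually rated against untreated controls from 0 (no effect) to 10 (complete control).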

blackgrass = assay: Test B pre/postemergence blackgrass; format: in vivo, Alopecurus myosuroides; conditions: for Blackgrass plant response rating (0 to 10 scale): 0 is no effect
Outline: as §1

surinam grass = assay: Test B pre/postemergence surinam grass; format: in vivo, Brachiaria decumbens; conditions: for B. signalgrass plant response rating (0 to 10 scale): 0 is no effect
Outline: as §1

cocklebur = assay: Test B pre/postemergence cocklebur; format: in vivo, Xanthium strumarium; conditions: for Cocklebur plant response rating (0 to 10 scale): 0 is no effect
Outline: as §1

corn = assay: Test B pre/postemergence corn; format: in vivo, Zea mays; conditions: for Corn plant response rating (0 to 10 scale): 0 is no effect
Outline: as §1

crabgrass = assay: Test B pre/postemergence crabgrass; format: in vivo, Digitaria sanguinalis; conditions: for Crabgrass plant response rating (0 to 10 scale): 0 is no effect
Outline: as §1

giant foxtail = assay: Test B pre/postemergence giant foxtail; format: in vivo, Setaria faberii; conditions: for Giant foxtail plant response rating (0 to 10 scale): 0 is no effect
Outline: as §1

morningglory = assay: Test B pre/postemergence morningglory; format: in vivo, Ipomoea hederacea; conditions: for Morningglory plant response rating (0 to 10 scale): 0 is no effect
Outline: as §1

pigweed = assay: Test B pre/postemergence pigweed; format: in vivo, Amaranthus retroflexus; conditions: for Redroot pigweed plant response rating (0 to 10 scale): 0 is no effect
Outline: as §1

rape = assay: Test B pre/postemergence rape; format: in vivo, Brassica napus; conditions: for Rape plant response rating (0 to 10 scale): 0 is no effect
Outline: as §1

sugar beet = assay: Test B pre/postemergence sugar beet; format: in vivo, Beta vulgaris; conditions: for Sugarbeets plant response rating (0 to 10 scale): 0 is no effect
Outline: as §1

velvetleaf = assay: Test B pre/postemergence velvetleaf; format: in vivo, Abutilon theophrasti; conditions: for Velvetleaf plant response rating (0 to 10 scale): 0 is no effect
Outline: as §1

wild oat = assay: Test B pre/postemergence wild oat; format: in vivo, Avena fatua; conditions: for Wild oats plant response rating (0 to 10 scale): 0 is no effect
Outline: as §1

[1] = Postemergence, Rate 125 g/ha, scale of 0 to 10 where 0 is no effect and 10 is complete control
[2] = Preemergence, Rate 62 g/ha, scale 0 to 10 (0 no effect, 10 complete control)
[3] = Preemergence, Rate 125 g/ha, 10 is complete control
[4] = Preemergence, Rate 250 g/ha, scale 0 to 10, 0 is no effect, 10 is complete control
[5] = Preemergence, Rate 500 g/ha, scale 0 to 10 (0 no effect, 10 complete control)
[6] = Rate 62 g/ha, Postemergence, scale of 0 to 10 where 0 is no effect and 10 is complete control
[7] = Rate 250 g/ha, Postemergence, scale 0 to 10, 0 is no effect, 10 is complete control
[8] = Rate 500 g/ha, Postemergence, scale 0 to 10, 0 no effect, 10 complete control
[9] = Rate 500 g/ha, Postemergence, scale 0 to 10
[10] = Preemergence, Rate 62 g/ha, scale of 0 to 10 where 0 is no effect and 10 is complete control

Cc1ccc(N(C(=O)n2oc(=O)n(C(C)C)c2=O)C(C)C)cc1 [Compound 132]
2: Plant response rating, Bedstraw (bedstraw; [7]) | Blackgrass plant response rating (blackgrass; [1]) | Morningglory plant response rating (morningglory; [5]) | Redroot pigweed plant response rating (pigweed; [2]) | Redroot pigweed plant response rating (pigweed; [9]) | Sugarbeets plant response rating (sugar beet; [2]) | Sugarbeets plant response rating (sugar beet; [9]) | Velvetleaf plant response rating (velvetleaf; [1]) | Velvetleaf plant response rating (velvetleaf; [6]) | Wild oats plant response rating (wild oat; [1]) | Plant response rating, Wild oats (wild oat; [7])
8: Plant response rating, Blackgrass (blackgrass; [7]) | Corn plant response rating (corn; [5]) | Plant response rating, Crabgrass (crabgrass; [7]) | Giant foxtail plant response rating (giant foxtail; [2]) | Giant foxtail plant response rating (0 to 10 scale) (giant foxtail; [3]) | Giant foxtail plant response rating (giant foxtail; [6]) | Rape plant response rating (rape; [5]) | Sugarbeets plant response rating (sugar beet; [5]) | Wild oats plant response rating (wild oat; [4])
4: Plant response rating, B. signalgrass (surinam grass; [7]) | Plant response rating, Corn (corn; [7]) | Velvetleaf plant response rating (0 to 10 scale) (velvetleaf; [3])
5: Crabgrass plant response rating (crabgrass; [6]) | Sugarbeets plant response rating (0 to 10 scale) (sugar beet; [3]) | Wild oats plant response rating (0 to 10 scale) (wild oat; [3])
3: Blackgrass plant response rating (blackgrass; [2]) | B. signalgrass plant response rating (surinam grass; [1]) | B. signalgrass plant response rating (0 to 10 scale) (surinam grass; [3]) | Morningglory plant response rating (morningglory; [6]) | Velvetleaf plant response rating (velvetleaf; [2]) | Plant response rating, Velvetleaf (velvetleaf; [7]) | Velvetleaf plant response rating (velvetleaf; [9]) | Wild oats plant response rating (wild oat; [2]) | Wild oats plant response rating (wild oat; [9])
7: Bedstraw plant response rating (bedstraw; [8]) | B. signalgrass plant response rating (surinam grass; [4]) | B. signalgrass plant response rating (surinam grass; Rate 500 g/ha, Postemergence, scale of 0 to 10 where 0 is no effect and 10 is complete control) | Corn plant response rating (corn; [4]) | Crabgrass plant response rating (crabgrass; [1]) | Crabgrass plant response rating (crabgrass; [2]) | Crabgrass plant response rating (0 to 10 scale) (crabgrass; [3]) | Morningglory plant response rating (morningglory; [9]) | Redroot pigweed plant response rating (pigweed; [4]) | Redroot pigweed plant response rating (pigweed; [5])
6: Blackgrass plant response rating (0 to 10 scale) (blackgrass; [3]) | Corn plant response rating (corn; [9]) | Morningglory plant response rating (morningglory; [1]) | Plant response rating, Morningglory (morningglory; [7]) | Redroot pigweed plant response rating (0 to 10 scale) (pigweed; [3]) | Sugarbeets plant response rating (sugar beet; [4]) | Velvetleaf plant response rating (velvetleaf; [4])
9: Bedstraw plant response rating (bedstraw; [4]) | Blackgrass plant response rating (blackgrass; [4]) | Blackgrass plant response rating (blackgrass; [9]) | B. signalgrass plant response rating (surinam grass; [5]) | Crabgrass plant response rating (crabgrass; [4]) | Crabgrass plant response rating (crabgrass; [5]) | Crabgrass plant response rating (crabgrass; [9]) | Giant foxtail plant response rating (giant foxtail; [1]) | Giant foxtail plant response rating (giant foxtail; [4]) | Plant response rating, Giant foxtail (giant foxtail; [7]) | Giant foxtail plant response rating (giant foxtail; [9]) | Wild oats plant response rating (wild oat; [5])
0: Bedstraw plant response rating (bedstraw; [1]) | Bedstraw plant response rating (bedstraw; [2]) | Bedstraw plant response rating (0 to 10 scale) (bedstraw; [3]) | Bedstraw plant response rating (bedstraw; [6]) | Blackgrass plant response rating (blackgrass; [6]) | B. signalgrass plant response rating (surinam grass; [2]) | B. signalgrass plant response rating (surinam grass; [6]) | Cocklebur plant response rating (cocklebur; [1]) | Cocklebur plant response rating (cocklebur; [2]) | Cocklebur plant response rating (0 to 10 scale) (cocklebur; [3]) | Cocklebur plant response rating (cocklebur; [5]) | Cocklebur plant response rating (cocklebur; [6]) | Plant response rating, Cocklebur (cocklebur; [7]) | Cocklebur plant response rating (cocklebur; [9]) | Corn plant response rating (corn; [1]) | Corn plant response rating (corn; [2]) | Corn plant response rating (0 to 10 scale) (corn; [3]) | Corn plant response rating (corn; [6]) | Morningglory plant response rating (morningglory; [2]) | Morningglory plant response rating (0 to 10 scale) (morningglory; [3]) | Morningglory plant response rating (morningglory; [4]) | Redroot pigweed plant response rating (pigweed; [1]) | Redroot pigweed plant response rating (pigweed; [6]) | Plant response rating, Redroot pigweed (pigweed; [7]) | Rape plant response rating (rape; [1]) | Rape plant response rating (rape; [2]) | Rape plant response rating (0 to 10 scale) (rape; [3]) | Rape plant response rating (rape; [4]) | Rape plant response rating (rape; [6]) | Plant response rating, Rape (rape; [7]) | Rape plant response rating (rape; [9]) | Sugarbeets plant response rating (sugar beet; [1]) | Sugarbeets plant response rating (sugar beet; [6]) | Plant response rating, Sugarbeets (sugar beet; [7]) | Wild oats plant response rating (wild oat; [6])
10: Bedstraw plant response rating (bedstraw; [5]) | Blackgrass plant response rating (blackgrass; [5]) | Giant foxtail plant response rating (giant foxtail; [5]) | Velvetleaf plant response rating (velvetleaf; [5])

CC(C)N(C(=O)n1oc(=O)n([C@@H](C)c2ccccc2)c1=O)c1ccccc1 [Compound 173]
7: Morningglory plant response rating (morningglory; [6])
9: Crabgrass plant response rating (crabgrass; [5]) | Giant foxtail plant response rating (0 to 10 scale) (giant foxtail; [3]) | Giant foxtail plant response rating (giant foxtail; [4])
3: B. signalgrass plant response rating (surinam grass; [4]) | Sugarbeets plant response rating (sugar beet; [4]) | Wild oats plant response rating (wild oat; [5])
5: Plant response rating, Crabgrass (crabgrass; [7]) | Redroot pigweed plant response rating (pigweed; [5]) | Sugarbeets plant response rating (sugar beet; [9])
2: Plant response rating, Blackgrass (blackgrass; [7]) | Blackgrass plant response rating (blackgrass; [9]) | Cocklebur plant response rating (cocklebur; [9]) | Crabgrass plant response rating (crabgrass; [10]) | Sugarbeets plant response rating (0 to 10 scale) (sugar beet; [3]) | Wild oats plant response rating (wild oat; [4])
0: Bedstraw plant response rating (bedstraw; [1]) | Bedstraw plant response rating (bedstraw; [10]) | Bedstraw plant response rating (0 to 10 scale) (bedstraw; [3]) | Bedstraw plant response rating (bedstraw; [4]) | Bedstraw plant response rating (bedstraw; [5]) | Bedstraw plant response rating (bedstraw; [6]) | Blackgrass plant response rating (blackgrass; [1]) | Blackgrass plant response rating (blackgrass; [10]) | Blackgrass plant response rating (0 to 10 scale) (blackgrass; [3]) | Blackgrass plant response rating (blackgrass; [4]) | Blackgrass plant response rating (blackgrass; [6]) | B. signalgrass plant response rating (surinam grass; [1]) | B. signalgrass plant response rating (surinam grass; [10]) | B. signalgrass plant response rating (0 to 10 scale) (surinam grass; [3]) | B. signalgrass plant response rating (surinam grass; [6]) | Plant response rating, B. signalgrass (surinam grass; [7]) | B. signalgrass plant response rating (surinam grass; [8]) | Cocklebur plant response rating (cocklebur; [1]) | Cocklebur plant response rating (cocklebur; [10]) | Cocklebur plant response rating (0 to 10 scale) (cocklebur; [3]) | Cocklebur plant response rating (cocklebur; [4]) | Cocklebur plant response rating (cocklebur; [5]) | Cocklebur plant response rating (cocklebur; [6]) | Corn plant response rating (corn; [1]) | Corn plant response rating (corn; [10]) | Corn plant response rating (0 to 10 scale) (corn; [3]) | Corn plant response rating (corn; [4]) | Corn plant response rating (corn; [5]) | Corn plant response rating (corn; [6]) | Plant response rating, Corn (corn; [7]) | Corn plant response rating (corn; [9]) | Crabgrass plant response rating (crabgrass; [6]) | Giant foxtail plant response rating (giant foxtail; [1]) | Giant foxtail plant response rating (giant foxtail; [6]) | Plant response rating, Giant foxtail (giant foxtail; [7]) | Giant foxtail plant response rating (giant foxtail; [9]) | Morningglory plant response rating (morningglory; [10]) | Morningglory plant response rating (0 to 10 scale) (morningglory; [3]) | Morningglory plant response rating (morningglory; [4]) | Morningglory plant response rating (morningglory; [5]) | Redroot pigweed plant response rating (pigweed; [1]) | Redroot pigweed plant response rating (pigweed; [10]) | Redroot pigweed plant response rating (0 to 10 scale) (pigweed; [3]) | Redroot pigweed plant response rating (pigweed; [4]) | Redroot pigweed plant response rating (pigweed; [6]) | Plant response rating, Redroot pigweed (pigweed; [7]) | Redroot pigweed plant response rating (pigweed; [9]) | Rape plant response rating (rape; [1]) | Rape plant response rating (rape; [10]) | Rape plant response rating (0 to 10 scale) (rape; [3]) | Rape plant response rating (rape; [4]) | Rape plant response rating (rape; [5]) | Rape plant response rating (rape; [6]) | Plant response rating, Rape (rape; [7]) | Rape plant response rating (rape; [9]) | Sugarbeets plant response rating (sugar beet; [1]) | Sugarbeets plant response rating (sugar beet; [10]) | Sugarbeets plant response rating (sugar beet; [6]) | Plant response rating, Sugarbeets (sugar beet; [7]) | Velvetleaf plant response rating (velvetleaf; [10]) | Velvetleaf plant response rating (0 to 10 scale) (velvetleaf; [3]) | Velvetleaf plant response rating (velvetleaf; [4]) | Velvetleaf plant response rating (velvetleaf; [5]) | Plant response rating, Velvetleaf (velvetleaf; [7]) | Velvetleaf plant response rating (velvetleaf; [9]) | Wild oats plant response rating (wild oat; [10]) | Wild oats plant response rating (0 to 10 scale) (wild oat; [3]) | Plant response rating, Wild oats (wild oat; [7]) | Wild oats plant response rating (wild oat; [9])
10: Giant foxtail plant response rating (giant foxtail; [5]) | Morningglory plant response rating (morningglory; [1]) | Plant response rating, Morningglory (morningglory; [7]) | Morningglory plant response rating (morningglory; [9])
8: Crabgrass plant response rating (crabgrass; [4]) | Crabgrass plant response rating (crabgrass; [9])
6: Blackgrass plant response rating (blackgrass; [5]) | Crabgrass plant response rating (0 to 10 scale) (crabgrass; [3]) | Giant foxtail plant response rating (giant foxtail; [10]) | Sugarbeets plant response rating (sugar beet; [5])
1: Plant response rating, Cocklebur (cocklebur; [7])
4: Plant response rating, Bedstraw (bedstraw; [7]) | B. signalgrass plant response rating (surinam grass; [5]) | Crabgrass plant response rating (crabgrass; [1])
